The text below walks through data of US20040171680A1, “Treating Syndrome X with substituted tetralins and indanes” (priority 2002, published 2004).

One assay deals with T1, PPARγ (Homo sapiens, UniProt P37231).
T1 construct: Following the challenge of the preadipocytes, cells may be lysed with lysis buffer; endogenous in cells; host or cells: preadipocytes
T1 sequence (P37231 1-505): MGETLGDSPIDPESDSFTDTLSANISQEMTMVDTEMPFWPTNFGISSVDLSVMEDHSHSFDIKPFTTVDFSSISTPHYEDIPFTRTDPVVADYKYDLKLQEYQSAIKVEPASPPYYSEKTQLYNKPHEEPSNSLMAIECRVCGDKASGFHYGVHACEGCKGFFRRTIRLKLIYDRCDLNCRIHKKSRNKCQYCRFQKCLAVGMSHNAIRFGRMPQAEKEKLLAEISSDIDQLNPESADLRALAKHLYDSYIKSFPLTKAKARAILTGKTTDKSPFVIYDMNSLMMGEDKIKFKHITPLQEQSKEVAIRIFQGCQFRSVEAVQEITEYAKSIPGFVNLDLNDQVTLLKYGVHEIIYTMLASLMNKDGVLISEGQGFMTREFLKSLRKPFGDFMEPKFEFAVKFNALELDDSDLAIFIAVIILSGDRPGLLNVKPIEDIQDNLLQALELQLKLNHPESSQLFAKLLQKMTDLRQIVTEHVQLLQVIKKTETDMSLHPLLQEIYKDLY
Description: aP2 Assay for PPAR gamma Agonists (bDNA aP2 mRNA in preadipocytes). Type of assay: cell-based. To be noted: values in square brackets. From the text: aP2 Assay for PPAR gamma Agonists
The procedure is described in detail in Burris et al., Molecular Endocrinology, 1999, 13:410, which is hereby incorporated by reference in its entirety, and aP2 assay results of agonist intrinsic activity may be presented as fold increase over vehicle in induction of aP2 mRNA production.
Twenty-four hours after the initial seeding of the 96-well plates by hand (around 20,000/well), the differentiation assay may be initiated. Medium may be removed and replaced with […] of differentiation medium containing vehicle (DMSO) or test compounds. Cells may be returned to incubator for 24 hours culture. At the termination of the challenge, medium may be removed and 100 ul of lysis buffer may be added to initiate the bDNA aP2 mRNA assay. The branched DNA assay may be performed according to the manufacturer's protocol (Bayer Diagnostics; Emeryville, Calif.). Result may be expressed as the fold increase of aP2 mRNA production activated over vehicle controls. EC50's and Emax may be determined by non-linear regression with a sigmoidal fit curve.
Following the challenge of the preadipocytes, cells may be lysed with lysis buffer (Bayer Diagnostics) containing the aP2 oligonucleotides. After a 15 minute incubation at 53° C. or 30 minutes at 37° C. incubator, 70 ul of the lysis buffer from each well may be added to a corresponding capture well (preincubated with 70 ul of blocking buffer (Bayer Diagnostics)). The capture plate may be incubated overnight at 53° C. in a plate incubator (Bayer Diagnostics). After this incubation, the bDNA and labeled probes may be annealed as directed by the manufacturer. Following a 30-minute incubation with the luminescent alkaline phosphatase substrate, dioxitane, the luminescence may be quantitated in a Dynex MLX microtiter plate luminometer. Oligonucleotide probes designed to anneal to the aP2 mRNA and function in the bDNA mRNA detection system are designed with ProbeDesigner software (Bayer Diagnostics). This software package analyzes a target sequence of interest with a series of algorithms in order to determine which regions of the sequence can perform as locations for capture, label, or spacer probe annealing. The sequences of the oligonucleotides are as follows: […]

The next assay has as its target T2, PPARδ (Homo sapiens, UniProt Q03181).
T2 construct: a Gal4-Luciferase reporter is co-transfected
T2 sequence (Q03181 171-441 limits assumed): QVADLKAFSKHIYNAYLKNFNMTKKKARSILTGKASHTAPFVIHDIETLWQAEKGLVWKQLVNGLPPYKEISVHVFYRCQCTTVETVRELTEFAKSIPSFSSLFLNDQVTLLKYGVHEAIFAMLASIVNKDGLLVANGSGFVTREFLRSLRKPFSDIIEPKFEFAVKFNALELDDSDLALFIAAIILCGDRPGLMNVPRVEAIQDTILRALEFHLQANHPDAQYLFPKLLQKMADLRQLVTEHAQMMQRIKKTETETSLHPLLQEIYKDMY
As to the kind of experiment: Transfection Assay for PPARδ Receptors (PPAR-Gal4 / Gal4-Luciferase reporter in HEK293 cells). To be noted: values in square brackets. Type of assay: cell-based. In short, it runs like this: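 HEK293 cells co-transfected with PPAR-Gal4 receptor and Gal4-luciferase reporter, then moved into 5% charcoal-treated FBS medium. Compounds applied for 24 h at 37 °C, 5% CO2; luciferase activity read with Steady-Glo.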
In general terms: In a reporter assay the amount or activity of a reporter protein is the signal.

The test system of another assay is ob/ob mice. Description: 11 day oral dosing in female ob/ob mice. To be noted: 1.0 mpk, once daily oral gavage for 11 days, % change compared to vehicle. Type of assay: in vivo. Here is the method: 11 Day Dosing of Example in Female, 7 week Old ob/ob Mice
(Female ob/ob mice (C57 BL/6J-Lep^ob, Jackson Labs, Bar Harbor, Me.), 7 weeks of age, were housed two per cage in solid-bottomed shoe box cages. Room temperature was maintained at 68-72° F. and humidity at 50-65%. Room lighting was on a 12-hour light/12-hour dark cycle. Mice were fed a certified NIH Rat and Mouse diet #5K50 (P M I Nutrition Int'l, St. Louis, Mo., via W. F. Fisher and Son, Inc., Bound Brook, N.J.). Food and water were supplied ad libitum.
The compound was prepared as suspensions in 0.5% hydroxypropylmethylcellulose (Dow Chemical, Midland, Mich.). The dosing volume was 10 mL/kg of body weight. Female ob/ob diabetic mice (8/group) were orally gavaged once daily for 11 days with either 0.5% methylcellulose in dH2O (vehicle) or PPAR agonist at 0.003, 0.01, 0.03, 0.1, 0.3, 1 mg/kg/day. Body weight was measured in the mornings on Day 1, prior to dosing, and on Day 12 before bleeding. 18 hours after the final dose for each group, the mice were anesthetized with CO2/O2 (70%:30%) and bled by retro-orbital sinus puncture into micro-tubes containing clog activator and then put in ice. […] Serum glucose and triglycerides were determined by using COBAS Mira Plus blood chemistry analyzer (Roche Diagnostics, N.J.). Serum insulin and free fatty acids were measured by using ALPCO insulin ELISA kit and Wako NEFA kit, respectively. […]

`CCN(C(=O)Nc1ccc(OC(F)(F)F)cc1)C1CCc2cc(SC(C)(C)C(=O)O)c(F)cc2C1` (stereo not drawn) [Example 50, 2-{6-[1-Ethyl-3-(4-trifluoromethoxyphenyl)ureido]-3-fluoro-5,6,7,8-tetrahydronaphthalen-2-ylsulfanyl}-2-methylpropionic acid]: the concentration for a half-maximal effect (EC50) at PPARγ and on PPARδ was over 3 µM throughout. Further, the “Δ Plasma TG” value in the assay with ob/ob mice was −86%.

Broadly, the EC50 is the concentration at which the effect is half-maximal.
